Test system: HIV-1 NL4-3 viral clone expressing Renilla luciferase
Experiment: microbe, parasite or virus in culture
Format: cell-based
Details: Human immunodeficiency virus 1, NL43, MT2, 96 h
Outline: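 MT-2 cells (2×10^4/well) were infected at MOI 0.027 with Renilla-luciferase HIV-1 NL4-3 alongside 3-fold compound dilutions for 96 h. Spread was read by EnduRen luminescence and supernatant infectivity on TZM-bl (48 h, MUG fluorescence). Mock-infected cytotoxicity used AlamarBlue. % inhibition versus solvent was fitted by 4-parameter logistic (0–100% constrained) for EC50/CC50.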

Structure (SMILES)	EC50
COc1cc2c(cc1OCc1ccccc1)CCNC2/C=C/c1cc(OC)c(OC)c(OC)c1 (stereo not drawn) [Example AM, 6-Benzyloxy-7-methoxy-1-[(E)-2-(3,4,5-trimethoxyphenyl)vinyl]-1,2,3,4-tetrahydroisoquinoline]	220 nM
CCOC(=O)CCCOc1cc(/C=C/C2NCCc3cc(OCc4ccccc4)c(OC)cc32)ccc1OC (stereo not drawn) [CV, Ethyl 4-[5-[(E)-2-(6-benzyloxy-7-methoxy-1,2,3,4-tetrahydroisoquinolin-1-yl)vinyl]-2-methoxy-phenoxy]butanoate]	100 nM
COc1ccc(/C=C/C2c3cc(OC)c(OCc4ccccc4)cc3CCN2C(=O)c2cnccn2)cc1OCc1ccccc1 (stereo not drawn) [Example B, [6-Benzyloxy-1-[(E)-2-(3-benzyloxy-4-methoxy-phenyl)vinyl]-7-methoxy-3,4-dihydro-1H-isoquinolin-2-yl]-pyrazin-2-yl-methanone]	10000 nM
COc1cc(C)c(/C=C/C2NCCc3cc(OCc4ccccc4)c(OC)cc32)cc1OCc1ccccc1 (stereo not drawn) [AF, 6-benzyloxy-1-[(E)-2-(5-benzyloxy-4-methoxy-2-methyl-phenyl)vinyl]-7-methoxy-1,2,3,4-tetrahydroisoquinoline]	83 nM
COc1cc2c(cc1OCc1ccccc1)CCNC2/C=C/c1cccc(C(=O)O)c1 (stereo not drawn) [ER, 3-[(E)-2-(6-benzyloxy-7-methoxy-1,2,3,4-tetrahydroisoquinolin-1-yl)vinyl]benzoic acid]	10000 nM
COc1cc2c(cc1OCc1ccccc1)CCNC2/C=C/c1cc2ccccc2s1 (stereo not drawn) [DU, 1-[(E)-2-(1-Benzothiophen-2-yl)ethenyl]-6-(benzyloxy)-7-methoxy-1,2,3,4-tetrahydroisoquinoline]	10100 nM
COc1cc2c(cc1OCc1ccccc1)CCNC2/C=C/c1ccc(N(C)C)cc1C (stereo not drawn) [BG, 4-[(E)-2-(6-benzyloxy-7-methoxy-1,2,3,4-tetrahydroisoquinolin-1-yl)vinyl]-N,N,3-trimethyl-aniline]	1650 nM
COc1cc2c(cc1OCc1ccccc1)CCNC2/C=C/c1cn(C)c2ncccc12 (stereo not drawn) [DP]	15 nM
COc1cc2c(cc1OCc1ccccc1)CCNC2/C=C/c1cc2c(cc1C)OCCO2 (stereo not drawn) [BC, 6-Benzyloxy-7-methoxy-1-[(E)-2-(7-methyl-2,3-dihydro-1,4-benzodioxin-6-yl)vinyl]-1,2,3,4-tetrahydroisoquinoline]	27.1 nM
COc1cc2c(cc1OCc1ccccc1)CCNC2/C=C/c1cc(OCc2ccccc2)ccc1C (stereo not drawn) [Example AD, 6-benzyloxy-1-[(E)-2-(5-benzyloxy-2-methyl-phenyl)vinyl]-7-methoxy-1,2,3,4-tetrahydroisoquinoline]	84 nM
COc1cc2c(cc1OCc1ccccc1)CCNC2/C=C/c1cc2c(cc1C)OCO2 (stereo not drawn) [BB, 6-Benzyloxy-7-methoxy-1-[(E)-2-(6-methyl-1,3-benzodioxol-5-yl)vinyl]-1,2,3,4-tetrahydroisoquinoline]	54.4 nM
COc1cc2c(cc1OCc1ccccc1)CCNC2/C=C/c1cc(OCC(C)(C)C)c(OC)cc1C (stereo not drawn) [BX, 6-Benzyloxy-1-[(E)-2-[5-(2,2-dimethylpropoxy)-4-methoxy-2-methyl-phenyl]vinyl]-7-methoxy-1,2,3,4-tetrahydroisoquinoline]	350 nM
CCn1cc(/C=C/C2NCCc3cc(OCc4ccccc4)c(OC)cc32)cn1 (stereo not drawn) [Example AL, 6-Benzyloxy-1-[(E)-2-(1-ethylpyrazol-4-yl)vinyl]-7-methoxy-1,2,3,4-tetrahydroisoquinoline]	2950 nM
COc1cc2c(cc1OCc1ccccc1)CCNC2/C=C/c1ccc(C(=O)O)cc1 (stereo not drawn) [EQ, 4-[(E)-2-(6-benzyloxy-7-methoxy-1,2,3,4-tetrahydroisoquinolin-1-yl)vinyl]benzoic acid]	7040 nM
COc1cc2c(cc1OCc1ccccc1)CCNC2/C=C/c1cc(OC(F)(F)F)ccc1C (stereo not drawn) [BH, 6-Benzyloxy-7-methoxy-1-[(E)-2-[2-methyl-5-(trifluoromethoxy)phenyl]vinyl]-1,2,3,4-tetrahydroisoquinoline]	1930 nM
COc1cc2c(cc1OCc1ccccc1)CCNC2/C=C/c1ccc(-c2ncco2)cc1 (stereo not drawn) [ED, 2-[4-[(E)-2-(6-Benzyloxy-7-methoxy-1,2,3,4-tetrahydroisoquinolin-1-yl)vinyl]phenyl]oxazole]	580 nM
COc1cccc(-c2ncc(/C=C/C3NCCc4cc(OCc5ccccc5)c(OC)cc43)cn2)c1 (stereo not drawn) [DN]	2400 nM
COc1ccc(OC)c(/C=C/C2NCCc3cc(OCc4ccccc4)c(OC)cc32)c1 (stereo not drawn) [EK, 6-Benzyloxy-1-[(E)-2-(2,5-dimethoxyphenyl)vinyl]-7-methoxy-1,2,3,4-tetrahydroisoquinoline]	380 nM
COCCOc1ccccc1/C=C/C1NCCc2cc(OCc3ccccc3)c(OC)cc21 (stereo not drawn) [DE, (E)-6-(benzyloxy)-7-methoxy-1-(2-(2-methoxyethoxy)styryl)-1,2,3,4-tetrahydroisoquinoline]	1440 nM
COc1ccc(/C=C/C2NCCc3cc(OCc4ccccc4)c(OC)cc32)cn1 (stereo not drawn) [AX, 6-Benzyloxy-7-methoxy-1-[(E)-2-(6-methoxy-3-pyridyl)vinyl]-1,2,3,4-tetrahydroisoquinoline]	3280 nM

Structure (SMILES)	EC50
COc1ccc(/C=C/C2NCCc3cc(OCc4ccccc4)c(OC)cc32)cc1C (stereo not drawn) [EI, 6-Benzyloxy-7-methoxy-1-[(E)-2-(4-methoxy-3-methyl-phenyl)vinyl]-1,2,3,4-tetrahydroisoquinoline]	340 nM
COc1cc2c(cc1OCc1ccccc1)CCNC2/C=C/c1cccc(-c2ccncc2)c1 (stereo not drawn) [DQ, 6-(Benzyloxy)-7-methoxy-1-[(E)-2-[3-(pyridin-4-yl)phenyl]ethenyl]-1,2,3,4-tetrahydroisoquinoline]	126 nM
COc1cc2c(cc1OCc1ccccc1)CCNC2/C=C/c1ccc2cccnc2c1 (stereo not drawn) [DL, (E)-7-(2-(6-(benzyloxy)-7-methoxy-1,2,3,4-tetrahydroisoquinolin-1-yl)vinyl)quinoline]	96.9 nM
COc1cc(C)c(/C=C/C2c3cc(OC)c(OCc4ccccc4)cc3CCN2C(=O)OC(C)(C)C)cc1OCc1ccccc1 (stereo not drawn) [Example Y, tert-butyl 6-benzyloxy-1-[(E)-2-(5-benzyloxy-4-methoxy-2-methyl-phenyl)vinyl]-7-methoxy-3,4-dihydro-1H-isoquinoline-2-carboxylate]	390 nM
COc1cc(C)c(/C=C/C2NCCc3cc(OCc4ccccc4)c(OC)cc32)cc1C (stereo not drawn) [BV, 6-Benzyloxy-7-methoxy-1-[(E)-2-(4-methoxy-2,5-dimethyl-phenyl)vinyl]-1,2,3,4-tetrahydroisoquinoline]	304 nM
COc1cc2occc2cc1/C=C/C1NCCc2cc(OCc3ccccc3)c(OC)cc21 (stereo not drawn) [EB, 6-Benzyloxy-7-methoxy-1-[(E)-2-(6-methoxybenzofuran-5-yl)vinyl]-1,2,3,4-tetrahydroisoquinoline]	300 nM
COc1cc(C)c(/C=C/C2NCCc3cc(OCc4ccccc4)c(OC)cc32)cc1OCCCCN=[N+]=[N-] (stereo not drawn) [CD, 1-[(E)-2-[5-(4-azidobutoxy)-4-methoxy-2-methyl-phenyl]vinyl]-6-benzyloxy-7-methoxy-1,2,3,4-tetrahydroisoquinoline]	88 nM
COc1cc2c(cc1OCc1ccccc1)CCNC2/C=C/c1nccs1 (stereo not drawn) [DV, 6-(Benzyloxy)-7-methoxy-1-[(E)-2-(1,3-thiazol-2-yl)ethenyl]-1,2,3,4-tetrahydroisoquinoline]	29500 nM
COc1ccccc1/C=C/C1NCCc2cc(OCc3ccccc3)c(OC)cc21 (stereo not drawn) [DG, (E)-6-(benzyloxy)-7-methoxy-1-(2-methoxystyryl)-1,2,3,4-tetrahydroisoquinoline]	2200 nM
COc1ccc(/C=C/C2NCCc3cc(OCc4ccccc4)c(OC)cc32)cc1COCC(F)(F)F (stereo not drawn) [EO, 6-Benzyloxy-7-methoxy-1-[(E)-2-[4-methoxy-3-(2,2,2-trifluoroethoxymethyl)phenyl]vinyl]-1,2,3,4-tetrahydroisoquinoline]	504 nM
COc1ccc(/C=C/C2NCCc3cc(OCc4ccccc4)c(OC)cc32)cc1OC (stereo not drawn) [BQ, 6-Benzyloxy-1-[(E)-2-(3,4-dimethoxyphenyl)vinyl]-7-methoxy-1,2,3,4-tetrahydroisoquinoline]	198 nM
COc1cc2c(cc1OCc1ccccc1)CCNC2/C=C/c1ccc(-c2cccnc2)cc1 (stereo not drawn) [DJ]	393 nM
COc1ccc(/C=C/C2c3cc(OC)c(OCc4ccccc4)cc3CCN2C)cc1OCc1ccccc1 (stereo not drawn) [Example V, 6-benzyloxy-1-[(E)-2-(3-benzyloxy-4-methoxy-phenyl)vinyl]-7-methoxy-2-methyl-3,4-dihydro-1H-isoquinoline]	780 nM
COc1cc2c(cc1OCc1ccccc1)CCNC2/C=C/c1cc(OCC2CCNCC2)c(OC)cc1C (stereo not drawn) [BY, 6-Benzyloxy-7-methoxy-1-[(E)-2-[4-methoxy-2-methyl-5-(4-piperidylmethoxy)phenyl]vinyl]-1,2,3,4-tetrahydroisoquinoline]	397 nM
COc1cc2c(cc1OCc1ccccc1)CCNC2/C=C/c1ccccc1N(C)C (stereo not drawn) [DC, (E)-2-(2-(6-(benzyloxy)-methoxy-1,2,3,4-tetrahydroisoquinolin-1-yl)vinyl)-N,N-dimethylamine]	830 nM
COc1ccc(/C=C/C2NCCc3cc(OCc4ccccc4)c(OC)cc32)cc1OCc1ccccc1 (stereo not drawn) [Example AB, 6-benzyloxy-1-[(E)-2-(3-benzyloxy-4-methoxy-phenyl)vinyl]-7-methoxy-1,2,3,4-tetrahydroisoquinoline]	146 nM
COc1cc2c(cc1OCc1ccccc1)CCNC2/C=C/c1ccc2c(c1)OC(F)(F)O2 (stereo not drawn) [DF, (E)-6-(benzyloxy)-1-(2-(2,2-difluorobenzo[d][1,3]dioxol-5-yl)vinyl)-7-methoxy-1,2,3,4-tetrahydroisoquinoline]	5440 nM
COc1cc(C)c(/C=C/C2c3cc(OC)c(OCc4ccccc4)cc3CCN2C(=O)NC(C)(C)C)cc1OCc1ccccc1 (stereo not drawn) [Example O, 6-benzyloxy-1-[(E)-2-(5-benzyloxy-4-methoxy-2-methyl-phenyl)vinyl]-N-tert-butyl-7-methoxy-3,4-dihydro-1H-isoquinoline-2-carboxamide]	2010 nM
COc1cc2c(cc1OCc1ccccc1)CCNC2/C=C/c1cc2c(cc1C)OCCC2 (stereo not drawn) [CE, 6-Benzyloxy-7-methoxy-1-[(E)-2-(7-methylchroman-6-yl)vinyl]-1,2,3,4-tetrahydroisoquinoline]	125 nM

From patent US10195189B2, “2-phenethenyltetrahydro isoquinolines useful as anti-HIV compounds” (priority 2014, dated 2019)
